Values joined by “and” are separate entries in the source; they are usually repeats but may differ in a detail not shown here. Equal values may be shown once.
Experiment: Pharmacokinetics after single oral administration to beagle dogs;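 on AUC0-inf of Compound A (as titled): compound A is measured in plasma as a metabolite of the dosed analog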;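 on AUC0-last of Compound A (as titled): compound A is measured in plasma as a metabolite of the dosed analog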;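 on T1/2 of Compound A (as titled): compound A is measured in plasma as a metabolite of the dosed analog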;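 on Tlast of Compound A (as titled): compound A is measured in plasma as a metabolite of the dosed analog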
Type: in vivo
Method: The concentrations of the analytes in the plasma were quantified by liquid chromatography tandem mass spectrometry (LC-MS/MS).
The bioanalytical assay provided a lower limit of quantification (LLOQ) of 1.0 ng/mL and an upper limit of quantification (ULOQ) of 3000 ng/mL for all the analytes. The data of plasma concentration vs. time were analyzed using Phoenix WinNonlin 8.3 to determine the PK properties of the analytes.
The test articles were administered orally by gavage. The nominal dose volume was 5 mL/kg for both analogs.
The observation included appearance, behavior, morbidity and mortality.
Approximately 0.5 mL blood was collected at each scheduled time point from the peripheral veins.
The plasma samples were placed in microcentrifuge tubes and stored at −70+10° C. until analysis.

[1] = after single PO 10 mg/kg of Compound I-17/I-19, female individual
[2] = after single PO 10 mg/kg of Compound I-17/I-19, female individual, 10 mg/kg
[3] = after single PO 10 mg/kg of Compound I-17/I-19, female mean
[4] = after single PO 10 mg/kg of Compound I-17/I-19, male individual, 10 mg/kg
[5] = after single PO 10 mg/kg of Compound I-17/I-19, male mean
[6] = after single PO 80 mg/kg (so in the source) of Compound I-17/I-19, female individual, 80 mg/kg
[7] = after single PO 80 mg/kg (so in the source) of Compound I-17/I-19, female mean
[8] = after single PO 80 mg/kg (so in the source) of Compound I-17/I-19, female mean, 80 mg/kg
[9] = after single PO 80 mg/kg (so in the source) of Compound I-17/I-19, male individual
[10] = after single PO 80 mg/kg (so in the source) of Compound I-17/I-19, male individual, 80 mg/kg
[11] = after single PO 80 mg/kg (so in the source) of Compound I-17/I-19, male mean

CC(C)/C=C/COC1(c2ccc(Cl)cc2)c2ccccc2C2=NCCN21 (stereo not drawn) [Compound I-17]
T1/2 of Compound A (as titled) [1]: 5.87 h | Tlast of Compound A (as titled) [1]: 24.0 h | AUC0-inf of Compound A (as titled) [2]: 756 ng·h/mL and 946 ng·h/mL | AUC0-last of Compound A (as titled) [2]: 736 ng·h/mL and 915 ng·h/mL | Cmax of Compound A (as titled) [2]: 293 ng/mL and 252 ng/mL | MRT0-inf of Compound A (as titled) [2]: 4.62 h and 5.07 h | MRT0-last of Compound A (as titled) [2]: 3.88 h and 4.14 h | T1/2 of Compound A (as titled) [2]: 6.33 h | Tmax of Compound A (as titled) [2]: 1.00 h and 2.00 h | AUC0-inf of Compound A (as titled) [3]: 851 ng·h/mL | AUC0-last of Compound A (as titled) [3]: 826 ng·h/mL | Cmax of Compound A (as titled) [3]: 272 ng/mL | MRT0-inf of Compound A (as titled) [3]: 4.84 h | MRT0-last of Compound A (as titled) [3]: 4.01 h | T1/2 of Compound A (as titled) [3]: 6.10 h | Tlast of Compound A (as titled) [3]: 24.0 h | Tmax of Compound A (as titled) [3]: 1.50 h | Tmax of Compound A (as titled) (after single PO 10 mg/kg of Compound I-17/I-19, male individual): 1.00 h | AUC0-inf of Compound A (as titled) [4]: 229 ng·h/mL and 522 ng·h/mL | AUC0-last of Compound A (as titled) [4]: 209 ng·h/mL and 513 ng·h/mL | Cmax of Compound A (as titled) [4]: 89.0 ng/mL and 212 ng/mL | MRT0-inf of Compound A (as titled) [4]: 3.07 h and 3.86 h | MRT0-last of Compound A (as titled) [4]: 2.15 h and 3.33 h | T1/2 of Compound A (as titled) [4]: 3.08 h and 5.70 h | Tlast of Compound A (as titled) [4]: 8.00 h and 24.0 h | AUC0-inf of Compound A (as titled) [5]: 376 ng·h/mL | AUC0-last of Compound A (as titled) [5]: 361 ng·h/mL | Cmax of Compound A (as titled) [5]: 151 ng/mL | MRT0-inf of Compound A (as titled) [5]: 3.46 h | MRT0-last of Compound A (as titled) [5]: 2.74 h | T1/2 of Compound A (as titled) [5]: 4.39 h | Tlast of Compound A (as titled) [5]: 16.0 h | Tmax of Compound A (as titled) [5]: 1.00 h | T1/2 of Compound A (after single PO 80 mg/kg (so in the source) of Compound I-17/I-19, female individual): 24.0 h | Cmax of Compound A [6]: 4.00 ng/mL and 2.00 ng/mL | MRT0-inf of Compound A [6]: 0.989 h and 0.999 h | MRT0-last of Compound A [6]: 11.2 h and 11.5 h | Tmax of Compound A [6]: 7.07 h and 7.31 h | MRT0-inf of Compound A [7]: 0.994 h | Tlast of Compound A [7]: 323 h | AUC0-last of Compound A [8]: 323 ng·h/mL | MRT0-last of Compound A [8]: 11.3 h | Tlast of Compound A [9]: 24.0 h | Tmax of Compound A [9]: 2.00 h | AUC0-inf of Compound A [10]: 278 ng·h/mL and 298 ng·h/mL | AUC0-last of Compound A [10]: 258 ng·h/mL and 278 ng·h/mL | Cmax of Compound A [10]: 25.9 ng/mL and 31.6 ng/mL | MRT0-inf of Compound A [10]: 9.72 h and 9.19 h | MRT0-last of Compound A [10]: 7.90 h and 7.43 h | T1/2 of Compound A [10]: 6.33 h and 6.23 h | AUC0-inf of Compound A [11]: 288 ng·h/mL | AUC0-last of Compound A [11]: 268 ng·h/mL | Cmax of Compound A [11]: 28.8 ng/mL | MRT0-inf of Compound A [11]: 9.45 h | MRT0-last of Compound A [11]: 7.66 h | T1/2 of Compound A [11]: 6.28 h | Tlast of Compound A [11]: 24.0 h | Tmax of Compound A [11]: 2.00 h | Cmax of the analog (Compound I-17/I-19) (oral 10 mg/kg, female dogs): 272 ng/mL | T1/2 of the analog (Compound I-17/I-19) (oral 10 mg/kg, female dogs): 6.10 hours
